Laboratory results from paper PMC12735872, “Development of ^18F/^11C-Labeled Pyrrolo-Pyridine/Pyrimidine LRRK2 Selective PET Radioligands” (Pharmaceuticals, 2025).
pKi: −log10 of the molar value. Read-outs that look alike come from different tables or passages of the source. Blank lines part the entries; values can stand above or below the molecule they belong to.

How the values were obtained:
[1] = Free fraction in brain homogenate (fb); assay type: in vitro ADME; conditions: method ref. 18
Description: (§1) Table 1 LRRK2 wild-type (WT) and G2019S Lanthascreen, MDR1-MDCK permeability (Papp A:B), and efflux ratio (B:A/A:B), free fractions in plasma (fp) and brain homogenate (fb) and PET Multi-Parameter Optimization (MPO) score of Compounds 1, 2, and 3. | column: fb ^3 (%)

[2] = system: MDR1 (P-gp); assay: MDR1-MDCK permeability and efflux ratio; assay type: in vitro ADME; conditions: dog, assay described in ref. 17
Description: as §1, with “Papp A:B ^2 (MDR1-MDCK) (cm/s × 10^−6); B:A/A:B ^2” for “fb ^3 (%)”

[3] = molecular target: LRRK2 wild-type (WT) (Homo sapiens, UniProt Q5S007); assay: LRRK2 wild-type Lanthascreen; assay type: biochemical; conditions: assay described in ref. 16; read-out: LRRK2 Lanthascreen WT cKi
[4] = molecular target: LRRK2 G2019S (Homo sapiens, UniProt Q5S007, G2019S); assay: LRRK2 G2019S Lanthascreen; assay type: biochemical; conditions: assay described in ref. 16; read-out: LRRK2 Lanthascreen G2019S cKi
[5] = Free fraction in plasma (fp); assay type: in vitro ADME; conditions: method ref. 18
Description: Table 1 LRRK2 wild-type (WT) and G2019S Lanthascreen, MDR1-MDCK permeability (Papp A:B), and efflux ratio (B:A/A:B), free fractions in plasma (fp) and brain homogenate (fb) and PET Multi-Parameter Optimization (MPO) score of Compounds 1, 2, and 3. | column: fp ^3 (%)

[6] = system: cynomolgus monkey brain; assay: In vivo PET imaging in cynomolgus monkeys; conditions: for Blocking effect on [^18F]1 brain binding in vivo: pretreatment 30 min before [^18F]1, GNE-7915 40 mg/kg, PFE-360 0.5 mg/kg iv
Description: PET measurements were led using a high-resolution research tomograph (HRRT) from Siemens Molecular Imaging (Knoxville, TN, USA). List mode data were reconstructed using the ordinary Poisson-3D-ordered subset expectation maximization (OP-3D-OSEM) algorithm, with 10 repetitions and 16 subsets while modeling the point spread function (PSF). The in-plane resolution accomplished with OP-3D-OSEM and PSF was 1.5 mm full width at half maximum (FWHM) at the center of the field of view (FOV) and 2.4 mm at 10 cm off-center.
The study was approved by the Animal Ethics Committee of the Swedish Animal Welfare Agency and was performed according to “Guidelines for planning, conducting and documenting experimental research” (Dnr 5.2.18-4170/14 issued on 11 April 2014) of the KI as well as the “Guide for the Care and Use of Laboratory Animals” [26]. NHPs were supplied by the Astrid Fagraeus Laboratory (AFL) of the Swedish Institute for Infectious Disease Control (SMI), Solna, Sweden. Anesthesia was brought by intramuscular injection of ketamine hydrochloride (approximately 10 mg/kg) at AFL and continued with a mixture of sevoflurane (0–8.0%), oxygen, and medical air through endotracheal intubation at the KI PET center. The NHP head was immobilized using a homemade fixation device. Body temperature was maintained with a Bair Hugger model 505 (Arizant Healthcare, Eden Prairie, MN, USA) and monitored via an esophageal thermometer. ECG, heart rate, respiratory rate, blood pressure, and oxygen saturation were continuously examined throughout the experiments. The fluid balance was retained with continuous infusion of saline.
A 6 min transmission scan was performed before the injection of the radioligand using a single Cs-137 source. List mode data was acquired continuously for 93 min following intravenous administration of the radioligand. Images were reconstructed into 38 frames with varying intervals: […].
For all PET measurements, radioligands were administered via intravenous injection. Regions of interest (ROIs) were manually delineated on MRI images for each NHP, for the whole brain, cerebellum, caudate, putamen, thalamus, frontal cortex, temporal cortex, amygdala, posterior cingulate cortex, anterior cingulate cortex, hippocampus, occipital cortex, parietal cortex, ventral striatum, and insula. The summed PET images over the entire duration were co-registered with the individual NHP’s MRI image. After applying the co-registration parameters to the dynamic PET data, time–activity curves were generated for each brain region for every PET measurement. The standardized uptake value (SUV) was calculated for each brain region. The total distribution volume (VT) for all three radioligands were derived using one-tissue compartment (1-TC) and two-tissue compartment (2-TC) models.
On two separate occasions, PET measurements were performed after intravenous administration of GEN-7915 or PFE-360 with a slow infusion in one NHP (NHP2). The infusion lasted for 2 min, starting 30 min before PET scanning. The pretreatment formulations were prepared by dissolving it in DMSO (5%), Kolliphor EL (15%), and PBS (80%), and the pH of the final formulation was approximately 4.5–5.0. An automated blood sampling system (ABSS) measured continuous radioactivity for the first 3 min following the radioligand injection, while manual blood samples were taken at 4, 15, 30, 60, and 90 min post-injection to measure the radioactivity and metabolism.

[7] = Radiometabolite analysis in monkey plasma (gradient HPLC); assay type: in vivo, cynomolgus monkey; conditions: baseline PET
Procedure: The technique published earlier was utilized for the analysis of radiometabolites in NHP blood plasma. During the entire PET measurement, the percentage of the injected radioligand and its corresponding radioactive metabolites and radioactivity was measured with a reverse-phase HPLC system with UV absorbance detector (λ = 254 nm) and a radioactive detector. […] The blood samples were centrifuged at 4000 rpm for 2 min to separate plasma. From the centrifuged plasma, the resulting plasma was withdrawn and spiked with 1.4 times its volume of acetonitrile before being spun at 6000 rpm for 4 min. The supernatant, collected after the spun at 6000 rpm, was diluted with 3 mL of water, which was then injected into the HPLC system. The HPLC system was constructed with an Agilent 1200 series binary pump (Agilent, Santa Clara, CA, USA), a Rheodyne 7725i (Thermo Scientific, Waltham, MA, USA) manual injection valve, a 5.0 mL loop, and an Oyokoken S-2493Z radiation detector (Oyokoken, Tokyo, Japan) fitted with 50 mm lead shielding, which houses the detector. Chromatographic separation of the radiometabolites from the unchanged radioligand was performed via gradient elution on a semi-preparative reverse-phase ACE 5 µm C18 HL column (250 × 10 mm) using a mobile phase of acetonitrile (A) and ammonium formate 0.1 M (B). A flow rate of 5.0 mL/min was utilized according to the program 0–6.0 min: (A/B) 40:60 → 90:10 v/v; 6.0–10.0 min: (A/B) 90:10 (v/v). The radioactive peak corresponding to the parent radioligand was then integrated from the data output of the HPLC column. The area of this peak was calculated relative to the total area detected for all radioactive compounds. To evaluate the radioactivity recovery from the system, the measurement was taken from a 2 mL aliquot of the eluate taken from the HPLC column and measured against the total injected radioactivity.

[8] = Stability of formulated radioligand in PBS (analytical HPLC); assay type: physicochemical; conditions: sterile PBS, for 60 min
Procedure: The radiochemical purity and stability of all three radioligands ([^11C]3, [^18F]1 and [^18F]2) were determined using analytical HPLC coupled with an XBridge analytical column (C18 5 µm, 4.6 × 150 mm particle size), a Merck-Hitachi L-7100 pump, an L-7400 UV detector, and a GM tube for radioactivity detection (VWR International). A mixture of acetonitrile (25%) and HCO2NH4 (0.1 M aq. solution) (75%) with a flow rate of 2 mL/min was used as HPLC isocratic mobile phase. The HPLC liquid flow was monitored using a UV absorbance detector (λ = 254 nm) in conjunction with a radioactive detector (BETA-flow, Beckman, Fullerton, CA, USA). All three radioligands were eluted with a retention time (tR) of 4.0–4.5 min, and the total run time of the HPLC program was 9 min. The identity of the radiolabeled compound was confirmed by co-injecting the corresponding authentic reference standard.

[9] = Plasma protein binding by ultrafiltration; assay type: in vitro ADME, non-human primate (NHP); conditions: cynomolgus monkey, pH 7.4, NHP plasma, baseline
Procedure: The plasma protein binding of all three radioligands was determined in duplicate at the baseline condition according to a previously published method. For each blood plasma sample, 500 μL of non-human primate (NHP) blood plasma was used with 50 μL PBS (pH 7.4 containing KCl 0.2 mg, KH2PO4 0.2 mg, Na2HPO4 1.42 mg, and NaCl 8 mg per mL). The mixture included around 20 MBq of the corresponding radioligand in PBS. Samples underwent incubation at room temperature for 10 min. A small aliquot (20 µL) was taken from each mixture, and radioactivity measurements were performed using a well counter. From each mixture, 200 µL was placed into ultrafiltration tubes (Millipore Centrifree YM-30) and centrifuged at 3000 rpm for 15 minutes. The remaining filtrates were analyzed and aliquots (20 µL) were counted in the well counter described earlier. Protein-bound fractions were calculated as follows:(1) C⥂pla (filtrate) /Cpla (total) ÷CPBS (filtrate) /CPBS (total) ×100(%)
Cpla (total) represents the radioactivity concentration of incubation mixture in plasma and CPBS (total) represents the radioactivity concentration of incubation mixture in PBS. Cpla (filtrate) and CPBS (filtrate) are the radioactivity concentrations from filtrate samples.

[10] = molecular target: T1, LRRK2 (Homo sapiens, UniProt Q5S007); assay: In vitro autoradiography, human whole-hemisphere brain slices; assay type: binding
T1 construct: Human brains without pathological findings were acquired from the National Institute of Forensic Medicine; from tissue; host or cells: human post-mortem control brain, whole-hemisphere sections (100 µm)
Procedure: Human brains without pathological findings were acquired from the National Institute of Forensic Medicine at Karolinska Institutet in Stockholm, Sweden. These brains were obtained during forensic autopsies (designated as control brain) and were processed in a manner like previously described methods. […] The brain was removed, and its tissues were kept in −85 °C until the sectioning process. The whole brain hemispheric slices were subsequently maintained at −25 °C until the commencement of autoradiography procedures. […] The sectioning of the brain and the autoradiography experiments were performed at the Psychiatry section, Department of Neuroscience, Karolinska Institutet, Sweden.
Whole brain hemispheres were sectioned into horizontal slices with a thickness of 100 µm using a Leica cryomacrocut system. The autoradiographic procedures followed the same protocols established in previous studies conducted in our laboratory. The whole-hemisphere sections of 100 micron thickness were incubated for 90 min at room temperature with their corresponding radiotracer (4 MBq/200 mL) in TRIS buffer (pH 7.4) containing sodium chloride (120 mM), potassium chloride (5 mM), calcium chloride (2 mM), and albumin (0.1% w/v). After incubation, sections were washed three times in the same buffer at room temperature for five minutes each, briefly dipped in ice-cold distilled water, dried, and then placed in the phosphor imaging plates. Binding density standards were prepared by serial dilution of the radioligand stock solution in the assay buffer. Readings were taken with the Fujifilm BAS-5000 (Fujifilm, Tokyo, Japan), while quantitative analysis was conducted with the Multi Gauge 3.2 image analysis software (Fujifilm, Tokyo, Japan). For blocking experiments, adjacent brain sections were co-incubated with LuAF66583 (0.1 µM or 10 µM).

T1 sequence (Q5S007 whole entry): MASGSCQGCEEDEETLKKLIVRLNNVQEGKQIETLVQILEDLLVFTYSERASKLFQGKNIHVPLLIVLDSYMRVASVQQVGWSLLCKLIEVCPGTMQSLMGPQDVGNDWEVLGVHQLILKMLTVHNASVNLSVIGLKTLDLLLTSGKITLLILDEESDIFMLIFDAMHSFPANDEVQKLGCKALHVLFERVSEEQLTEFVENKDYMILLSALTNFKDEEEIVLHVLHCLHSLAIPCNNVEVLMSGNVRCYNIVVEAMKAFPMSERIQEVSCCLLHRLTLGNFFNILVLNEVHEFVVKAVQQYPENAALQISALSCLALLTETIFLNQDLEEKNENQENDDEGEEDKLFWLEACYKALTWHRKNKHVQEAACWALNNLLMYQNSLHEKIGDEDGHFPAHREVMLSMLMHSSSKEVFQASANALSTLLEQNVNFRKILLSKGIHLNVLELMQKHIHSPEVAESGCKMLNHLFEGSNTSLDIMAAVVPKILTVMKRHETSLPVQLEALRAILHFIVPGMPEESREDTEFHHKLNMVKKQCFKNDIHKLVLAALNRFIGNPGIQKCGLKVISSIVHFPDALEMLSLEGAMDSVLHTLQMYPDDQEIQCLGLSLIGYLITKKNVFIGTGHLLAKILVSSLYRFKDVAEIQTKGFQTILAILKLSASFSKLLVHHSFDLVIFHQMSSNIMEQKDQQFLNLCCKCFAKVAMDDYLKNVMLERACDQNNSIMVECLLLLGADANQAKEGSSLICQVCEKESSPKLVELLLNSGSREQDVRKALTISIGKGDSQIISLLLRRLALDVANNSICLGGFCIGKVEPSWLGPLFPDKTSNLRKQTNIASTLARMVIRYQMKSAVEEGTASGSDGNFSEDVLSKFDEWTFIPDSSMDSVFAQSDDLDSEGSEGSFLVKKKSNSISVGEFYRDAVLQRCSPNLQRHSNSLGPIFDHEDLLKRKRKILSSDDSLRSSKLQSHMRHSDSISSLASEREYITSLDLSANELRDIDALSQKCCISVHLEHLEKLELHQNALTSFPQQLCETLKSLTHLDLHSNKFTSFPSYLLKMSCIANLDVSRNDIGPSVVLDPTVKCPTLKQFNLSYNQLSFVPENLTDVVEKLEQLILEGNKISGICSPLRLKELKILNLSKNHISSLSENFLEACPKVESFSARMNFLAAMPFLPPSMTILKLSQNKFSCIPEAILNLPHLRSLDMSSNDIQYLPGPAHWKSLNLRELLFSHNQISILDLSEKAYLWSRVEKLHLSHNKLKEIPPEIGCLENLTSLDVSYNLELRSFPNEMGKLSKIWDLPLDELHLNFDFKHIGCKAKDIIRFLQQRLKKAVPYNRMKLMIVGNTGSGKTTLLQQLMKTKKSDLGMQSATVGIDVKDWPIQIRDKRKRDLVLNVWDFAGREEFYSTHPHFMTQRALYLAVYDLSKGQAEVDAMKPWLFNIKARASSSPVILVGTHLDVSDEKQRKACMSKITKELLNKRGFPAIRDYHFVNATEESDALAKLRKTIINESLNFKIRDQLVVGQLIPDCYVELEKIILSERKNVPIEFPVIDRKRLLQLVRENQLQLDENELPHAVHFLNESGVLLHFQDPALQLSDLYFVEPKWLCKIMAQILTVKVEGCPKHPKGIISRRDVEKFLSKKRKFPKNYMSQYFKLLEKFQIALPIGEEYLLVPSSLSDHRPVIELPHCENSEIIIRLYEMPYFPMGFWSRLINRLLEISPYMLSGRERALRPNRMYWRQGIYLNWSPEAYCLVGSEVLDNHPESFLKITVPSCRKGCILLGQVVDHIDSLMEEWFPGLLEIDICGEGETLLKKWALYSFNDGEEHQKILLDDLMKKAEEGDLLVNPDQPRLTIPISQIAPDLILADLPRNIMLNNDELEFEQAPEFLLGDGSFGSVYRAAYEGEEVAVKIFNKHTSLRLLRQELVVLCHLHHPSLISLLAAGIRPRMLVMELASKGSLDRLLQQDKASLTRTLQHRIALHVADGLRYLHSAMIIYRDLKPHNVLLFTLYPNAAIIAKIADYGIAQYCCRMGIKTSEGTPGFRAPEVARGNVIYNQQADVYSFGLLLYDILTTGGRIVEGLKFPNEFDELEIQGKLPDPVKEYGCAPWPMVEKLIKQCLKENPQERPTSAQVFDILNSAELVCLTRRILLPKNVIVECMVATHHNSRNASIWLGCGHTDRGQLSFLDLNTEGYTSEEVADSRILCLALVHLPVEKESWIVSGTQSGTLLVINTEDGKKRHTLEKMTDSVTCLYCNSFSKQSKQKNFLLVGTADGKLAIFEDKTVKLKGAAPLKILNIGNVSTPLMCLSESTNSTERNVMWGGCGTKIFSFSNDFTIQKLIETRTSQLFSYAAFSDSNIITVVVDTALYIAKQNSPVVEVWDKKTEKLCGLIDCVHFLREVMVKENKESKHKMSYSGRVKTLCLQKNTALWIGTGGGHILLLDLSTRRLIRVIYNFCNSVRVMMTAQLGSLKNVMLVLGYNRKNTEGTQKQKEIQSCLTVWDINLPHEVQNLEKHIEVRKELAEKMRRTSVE
Chain of LRRK2 wild-type (WT) (Q5S007 whole entry): as above
Chain of LRRK2 G2019S (Q5S007 whole entry G2019S): as the sequence (Q5S007 whole entry) above, with G2019S counted along it

- fraction unbound [1]: 0.23
- Papp A→B ([2]; MDCK-MDR1): 44 ×10⁻⁶ cm/s
- efflux ratio ([2]; MDR1-MDCK, read-out: B:A/A:B (efflux ratio)): 0.66
- pKi [3]: 9.49
- pKi [4]: 9.43
- fraction unbound [5]: 0.47
Compound: C[C@@H]1C[C@@H](F)CN1c1c(C#N)c2c(N)ncnc2n1C [Compound 2, 4-Amino-6-((2R,4R)-4-fluoro-2-methylpyrrolidin-1-yl)-7-methyl-7H-pyrrolo[2,3-d]pyrimidine-5-carbo nitrile]

Compound: CCNc1nc(Nc2cc(F)c(C(=O)N3CCOCC3)cc2OC)ncc1C(F)(F)F [GEN-7915, reference compound]
- Blocking effect on [^18F]1 brain binding in vivo [6]: no clear blocking effects

Compound: C[C@@H]1CCCN1c1c(C#N)c2c(N)nc(Nc3cnn([11CH3])c3)nc2n1C [[^11C]3, (R)-4-Amino-7-methyl-2-((1-[^11C]methyl-1H-pyrazol-4-yl)amino)-6-(2-methylpyrrolidin-1-yl)-7H-pyrrolo[2,3-d]pyrimidine-5-carbonitrile]
- Parent compound, share of eluted plasma radioactivity ([7]; at 5 min): over 90%
- Parent compound, share of eluted plasma radioactivity ([7]; at 90 min): around 10%
- Radiochemical purity maintained in formulation [8]: exceeding 99%
- fraction unbound at 10 min ([9]; read-out: Free fraction in plasma (fP)): ~0.15
- fraction unbound at 10 min ([9]; read-out: Plasma protein binding (converted)): < 0.15
- Brain uptake ([6]; PET, iv, baseline): > 1 %ID
- Brain washout ([6]; PET, iv, baseline): rapid washout
- Regional distribution of brain uptake ([6]; PET, iv, baseline): no significant regional differences

- Effect on [^18F]1 binding (ARG) ([10]; human brain slice, pre-incubation with 0.1 µM): did not significantly reduce
- Effect on [^18F]2 binding (ARG) ([10]; human striatum, hippocampus, cerebellum, pretreated with 10 µM): significantly reduced
Compound: Cn1cc(-c2c[nH]c3ncnc(N4CCOCC4)c23)cc1C#N [PFE-360, reference compound]
- Blocking effect on [^18F]1 brain binding in vivo [6]: no clear blocking effects
